Values joined by “and” are separate entries in the source; they are usually repeats but may differ in a detail not shown here. Equal values may be shown once.
Columns and labels:
RPE1 cells = experiment: Cell growth assay (IncuCyte confluence over 72 h); format: cell-based; conditions: listed as KT1
Description: Cell growth assay: Cell confluence (phase) from RPE1 (hTERT RPE-1, ATCC CLR_4000) or U2OS (ATCC, HTB-96) cell lines were monitored over time with the IncuCyte S3 (Sartiorius, Germany) in 384-well plates in 50 ul DMEM media, supplemented with 10% Fetal Bovine Serum (FBS) 1% penicillin/Streptomycin and incubated 24 h before treatment. Experiment was performed as described in Cano-Franco et al.. 50 μl of media containing either 2× final concentration of indicated compounds in or control compounds (final conc.: 0.1% DMSO, 250 nM Torin1, 200 ng/mL Bafilomycin) were added and images were taken every two hours over 72 h. Cell confluence is represented as % of area covered by cells. Each data point represents the average ratio or confluence obtained from three individual wells of the plate.

LC3A [1] = biological target: T1, LC3A (Homo sapiens, UniProt Q9H492); experiment: FP assay with Cy5-labelled p62 LIR tracer (protein titration and tracer displacement); format: binding; conditions: two replicate columns per compound
LC3B = LC3B (Homo sapiens, UniProt Q9GZQ8); experiment: as above; format: binding; conditions: for normalized FP signal, p62 LIR tracer displacement: LC3B; for compound titration LC3B (displacement curve, FP signal): two replicate columns per compound
LC3A [2] = biological target: T1, LC3A; experiment: Isothermal titration calorimetry (ITC); format: binding; conditions: LC3A
From the text: To minimize nonspecific dilution heat effects, DMSO concentrations in the protein and compound samples were matched. […] For this protocol, the chamber was pre-equilibrated with the protein, and the test compounds were titrated while continuously measuring the rate of exothermic heat evolution. The heat of binding was integrated, corrected, and fitted to an independent single-binding site model based on the manufacturer’s instructions, from which thermodynamic parameters (ΔH and TΔS), equilibrium association and dissociation constants (KA and KD, respectively), and stoichiometry (n) were calculated using TA Instruments NanoAnalyze software.

[3] = log10 concentration [M] -3.82391
[4] = log10 concentration [M] -4.1549
[5] = log10 concentration [M] -4.60206
[6] = log10 concentration [M] -5.30103
[7] = log10 concentration [M] -5.69897
[8] = log10 concentration [M] -6.22185
[9] = log10 concentration [M] -6.69897
[10] = log10 concentration [M] -7.30103
[11] = log10 concentration [M] -7.79588
[12] = log10 concentration [M] -8.08092

Cc1ccc(C)c(S(=O)(=O)Nc2cc(SCC(=O)O)c(O)c3ccccc23)c1 [compound 8]
RPE1 cell growth (RPE1 cells; 100 nM, 0 h): 18 and 24 and 13
RPE1 cell growth (RPE1 cells; 100 nM, 6 h): 23 and 30 and 15
RPE1 cell growth (RPE1 cells; 100 nM, 8 h): 25 and 30 and 16
RPE1 cell growth (RPE1 cells; 100 nM, 10 h): 25 and 32 and 17
RPE1 cell growth (RPE1 cells; 100 nM, 12 h): 24 and 34 and 18
RPE1 cell growth (RPE1 cells; 1 uM, 0 h): 19 and 20 and 26
RPE1 cell growth (RPE1 cells; 1 uM, 2 h): 20 and 28
RPE1 cell growth (RPE1 cells; 1 uM, 4 h): 20 and 25 and 32
RPE1 cell growth (RPE1 cells; 1 uM, 6 h): 21 and 26 and 32
RPE1 cell growth (RPE1 cells; 1 uM, 8 h): 22 and 29 and 35
RPE1 cell growth (RPE1 cells; 1 uM, 10 h): 25 and 29 and 37
RPE1 cell growth (RPE1 cells; 1 uM, 12 h): 27 and 32 and 38
RPE1 cell growth (RPE1 cells; 1 uM, 14 h): 29
RPE1 cell growth (RPE1 cells; 3 uM, 0 h): 20 and 28 and 21
RPE1 cell growth (RPE1 cells; 3 uM, 2 h): 23 and 30 and 21
RPE1 cell growth (RPE1 cells; 3 uM, 4 h): 25 and 34 and 21
RPE1 cell growth (RPE1 cells; 3 uM, 6 h): 25 and 34 and 23
RPE1 cell growth (RPE1 cells; 3 uM, 8 h): 29 and 35 and 24
RPE1 cell growth (RPE1 cells; 3 uM, 10 h): 29 and 37 and 26
RPE1 cell growth (RPE1 cells; 3 uM, 12 h): 30 and 38 and 28
RPE1 cell growth (RPE1 cells; 3 uM, 14 h): 32 and 42 and 30
RPE1 cell growth (RPE1 cells; 5 uM, 0 h): 17 and 27 and 20
RPE1 cell growth (RPE1 cells; 5 uM, 2 h): 20 and 30
RPE1 cell growth (RPE1 cells; 5 uM, 4 h): 22 and 33 and 21
RPE1 cell growth (RPE1 cells; 5 uM, 6 h): 22 and 36
RPE1 cell growth (RPE1 cells; 5 uM, 8 h): 26 and 37 and 23
RPE1 cell growth (RPE1 cells; 5 uM, 10 h): 25 and 39
RPE1 cell growth (RPE1 cells; 5 uM, 12 h): 28 and 40 and 27
RPE1 cell growth (RPE1 cells; 5 uM, 14 h): 29 and 45
RPE1 cell growth (RPE1 cells; 10 uM, 0 h): 17 and 22 and 19
RPE1 cell growth (RPE1 cells; 10 uM, 2 h): 20 and 23
RPE1 cell growth (RPE1 cells; 10 uM, 4 h): 23 and 26 and 20
RPE1 cell growth (RPE1 cells; 10 uM, 6 h): 24 and 31 and 22
RPE1 cell growth (RPE1 cells; 10 uM, 8 h): 25 and 29 and 23
RPE1 cell growth (RPE1 cells; 10 uM, 10 h): 26 and 28 and 25
RPE1 cell growth (RPE1 cells; 10 uM, 12 h): 28 and 32 and 27
compound titration LC3A (displacement curve, FP signal) (LC3A [1]; [3]): 97.6316 and 96.3158
compound titration LC3A (displacement curve, FP signal) (LC3A [1]; [4]): 102.368 and 100.263
compound titration LC3A (displacement curve, FP signal) (LC3A [1]; [5]): 93.6842 and 106.579
compound titration LC3A (displacement curve, FP signal) (LC3A [1]; log10 concentration [M] -5): 101.842 and 99.2105
compound titration LC3A (displacement curve, FP signal) (LC3A [1]; [6]): 105 and 102.368
compound titration LC3A (displacement curve, FP signal) (LC3A [1]; [7]): 101.842 and 94.2105
compound titration LC3A (displacement curve, FP signal) (LC3A [1]; [8]): 98.9474 and 95.2632
compound titration LC3A (displacement curve, FP signal) (LC3A [1]; [9]): 98.4211
compound titration LC3A (displacement curve, FP signal) (LC3A [1]; [10]): 101.842 and 96.5789
compound titration LC3A (displacement curve, FP signal) (LC3A [1]; [11]): 97.8947 and 91.3158
compound titration LC3A (displacement curve, FP signal) (LC3A [1]; [12]): 102.105 and 89.4737
normalized FP signal, p62 LIR tracer displacement (LC3B; [3]): 74.4737 and 78.6842
normalized FP signal, p62 LIR tracer displacement (LC3B; [4]): 94.4737 and 95.2632
normalized FP signal, p62 LIR tracer displacement (LC3B; [5]): 95 and 102.105
normalized FP signal, p62 LIR tracer displacement (LC3B; log10 concentration [M] -5): 92.8947 and 101.053
normalized FP signal, p62 LIR tracer displacement (LC3B; [6]): 97.1053 and 100
normalized FP signal, p62 LIR tracer displacement (LC3B; [7]): 93.6842 and 95.5263
normalized FP signal, p62 LIR tracer displacement (LC3B; [8]): 100 and 92.1053
normalized FP signal, p62 LIR tracer displacement (LC3B; [9]): 96.8421 and 99.4737
normalized FP signal, p62 LIR tracer displacement (LC3B; [10]): 97.8947 and 102.368
normalized FP signal, p62 LIR tracer displacement (LC3B; [11]): 96.5789 and 100
normalized FP signal, p62 LIR tracer displacement (LC3B; [12]): 100.789 and 96.5789
compound titration LC3B (displacement curve, FP signal) (LC3B; [3]): 74.4737 and 78.6842
compound titration LC3B (displacement curve, FP signal) (LC3B; [4]): 94.4737 and 95.2632
compound titration LC3B (displacement curve, FP signal) (LC3B; [5]): 95 and 102.105
compound titration LC3B (displacement curve, FP signal) (LC3B; log10 concentration [M] -5): 92.8947 and 101.053
compound titration LC3B (displacement curve, FP signal) (LC3B; [6]): 97.1053 and 100
compound titration LC3B (displacement curve, FP signal) (LC3B; [7]): 93.6842 and 95.5263
compound titration LC3B (displacement curve, FP signal) (LC3B; [8]): 100 and 92.1053
compound titration LC3B (displacement curve, FP signal) (LC3B; [9]): 96.8421 and 99.4737
compound titration LC3B (displacement curve, FP signal) (LC3B; [10]): 97.8947 and 102.368
compound titration LC3B (displacement curve, FP signal) (LC3B; [11]): 96.5789 and 100
compound titration LC3B (displacement curve, FP signal) (LC3B; [12]): 100.789 and 96.5789
outcome of ITC titration (LC3A [2]): induced protein precipitation

From article PMC11589570, “Critical assessment of LC3/GABARAP ligands used for degrader development and ligandability of LC3/GABARAP binding pockets” (Nature Communications, 2024)
